Each structure is given as a SMILES string. ≈ marks a conversion by molar mass, not a printed value. Where two headings read alike, the source gives them in different places.

Series [1] has as its target T1, human TRPV1 (Homo sapiens, UniProt Q8NER1).
T1 construct: using primers designed surrounding the complete hTRPV1 open reading frame; expressed in transfected cells; host or cells: CHO-K1 cells stably transfected with pcDNA3.1(-)-hVR1 plasmid
In words: Capsaicin-based assay, Protocol 2 (TRPV1/CHO cells, Fluo-4, FLIPR). The class given is cell-based. The conditions noted are these: capsaicin 100 nM final, mean ± SEM, number of trials in parentheses, read-out: TRPV1 IC50 Potency, Human Capsaicin CHO (hCAP-CHO). In a few lines:
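CHO cells stably transfected with human TRPV1 cDNA, kept under G418 selection, loaded with 3 μM Fluo-4 for 1 h. Calcium fluorescence followed on FLIPR after a 15 s baseline against capsaicin challenge; compounds at final 100 μM to 1.5625 μM, curves fitted over the full time course.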

The target in series [2] is T1, human TRPV1. In words: pH-based assay, Protocol 2 (TRPV1/CHO cells, Fura-2 AM, FDSS-3000, pH 5.0-5.1). Format: cell-based. The conditions noted are these: H2SO4 agonist, mean ± SEM, number of trials in parentheses, read-out: TRPV1 IC50 Potency, Human pH CHO (hpH-CHO).
Another series can be described thus: Aqueous solubility. The class given is physicochemical. The conditions noted are these: aqueous solution.
Setting [3] is: pH 1.2, simulated gastric fluid, read-out: aqueous solubility at pH 1.2.
[4] abbreviates: pH 6.8, aqueous buffer, read-out: aqueous solubility at pH 6.8.

T1 sequence (Q8NER1 whole entry): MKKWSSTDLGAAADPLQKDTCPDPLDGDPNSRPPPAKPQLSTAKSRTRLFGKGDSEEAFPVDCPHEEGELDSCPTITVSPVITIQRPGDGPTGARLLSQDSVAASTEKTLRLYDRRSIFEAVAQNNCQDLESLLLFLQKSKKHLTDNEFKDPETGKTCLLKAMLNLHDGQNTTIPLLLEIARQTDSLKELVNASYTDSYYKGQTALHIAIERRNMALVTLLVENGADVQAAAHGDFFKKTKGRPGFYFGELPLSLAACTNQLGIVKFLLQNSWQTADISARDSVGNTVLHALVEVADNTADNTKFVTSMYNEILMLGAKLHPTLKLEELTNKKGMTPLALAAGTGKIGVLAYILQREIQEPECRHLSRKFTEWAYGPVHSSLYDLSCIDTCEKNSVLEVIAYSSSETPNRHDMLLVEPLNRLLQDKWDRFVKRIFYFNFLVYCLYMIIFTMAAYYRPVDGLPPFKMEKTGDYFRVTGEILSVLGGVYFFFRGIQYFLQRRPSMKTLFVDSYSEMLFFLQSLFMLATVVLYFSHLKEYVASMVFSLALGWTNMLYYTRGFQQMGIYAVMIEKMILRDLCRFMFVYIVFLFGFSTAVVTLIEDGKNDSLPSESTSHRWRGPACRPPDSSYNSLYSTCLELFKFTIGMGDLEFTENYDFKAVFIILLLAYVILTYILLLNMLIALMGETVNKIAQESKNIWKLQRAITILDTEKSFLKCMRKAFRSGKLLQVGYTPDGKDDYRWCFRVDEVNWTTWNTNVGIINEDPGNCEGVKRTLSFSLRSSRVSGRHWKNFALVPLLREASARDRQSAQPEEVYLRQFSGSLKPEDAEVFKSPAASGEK

Consider `O=C(Nc1ccc(OC(F)(F)F)cc1)N1CC=C(c2ncc([C@H](O)CO)cc2Cl)CC1` [Compound E2], for which the half-maximal inhibitory concentration (IC50) worked out at 0.107 ± 0.0188 µM at human TRPV1 [1] and 0.0203 ± 0.0017 µM on human TRPV1 [2]. Further, the solubility in the series “Aqueous solubility” (setting [3]) and in “Aqueous solubility” (setting [4]) was over 50 µM each time.

In the case of `O=C(Nc1ccc(OC(F)(F)F)cc1)N1CCC(F)(c2ncc([C@H](O)CO)cc2Cl)CC1` [Compound C1], the IC50 on human TRPV1 [1] came to 0.0153 ± 0.0069 µM; on human TRPV1 [2] it was 0.0113 ± 0.0008 µM. In addition, the values for the solubility in “Aqueous solubility” (setting [3]) and in the series “Aqueous solubility” (setting [4]) were over 50 µM and 15.7 µM (≈ 7.5 µg/mL), respectively.

For the compound `O=C(Nc1ccc(C(F)(F)F)c(F)c1)N1CCC(F)(c2ncc([C@H](O)CO)cc2Cl)CC1` [Compound F1], the IC50 on human TRPV1 [1] was determined as 0.0186 ± 0.0068 µM; at human TRPV1 [2], 0.009 ± 0.0023 µM. In addition, the values for the solubility in “Aqueous solubility” (setting [3]) and in “Aqueous solubility” (setting [4]) were over 50 µM and 22.6 µM (≈ 10.8 µg/mL), respectively.

Consider `O=C(Nc1ccc(C(F)(F)F)cc1)N1CCC(F)(c2ncc([C@H](O)CO)cc2Cl)CC1` [Compound N1, (S)-4-(3-chloro-5-(1,2-dihydroxyethyl)pyridin-2-yl)-4-fluoro-N-(4-(trifluoromethyl)phenyl)piperidine-1-carboxamide], for which the IC50 on human TRPV1 [1] was 0.0387 ± 0.0053 µM; on human TRPV1 [2] it was 0.0063 ± 0.0008 µM. Besides, the solubility in the series “Aqueous solubility” (setting [3]) is over 50 µM; in the series “Aqueous solubility” (setting [4]), 28 µM (≈ 12.9 µg/mL).

Take `O=C(Nc1ccc(C(F)(F)F)cc1)N1CC=C(c2ncc([C@H](O)CO)cc2Cl)CC1` [Compound Z1, (S)-3-Chloro-5-(1,2-dihydroxy-ethyl)-3′,6′-dihydro-2′H-[2,4′]bipyridinyl-1′-carboxylic acid (4-trifluoromethyl-phenyl)amide]: the figures for the IC50 at human TRPV1 [1] and at human TRPV1 [2] were 0.0758 ± 0.0124 µM and 0.0116 ± 0.0007 µM, respectively. For the same compound, the solubility in “Aqueous solubility” (setting [3]) and in the series “Aqueous solubility” (setting [4]) was over 50 µM in each case.

As for `O=C(Nc1ccc(C(F)(F)F)c(Cl)c1)N1CC=C(c2ncc([C@H](O)CO)cc2F)CC1` [Compound U3], the IC50 at human TRPV1 [1] was 0.0279 ± 0.0099 µM; on human TRPV1 [2], 0.0135 µM. Besides, the results for the solubility in “Aqueous solubility” (setting [3]) and in the series “Aqueous solubility” (setting [4]) were over 50 µM and 26.4 µM (≈ 12.1 µg/mL), respectively.

In the case of `O=C(Nc1ccc(C(F)(F)F)cc1)N1CC=C(c2ncc(CO)cc2Cl)CC1` [Compound J2], the half-inhibitory concentration (IC50) amounted to 0.129 ± 0.026 µM on human TRPV1 [1] and 0.0417 ± 0.0044 µM on human TRPV1 [2]. In addition, the solubility in “Aqueous solubility” (setting [3]) and in the series “Aqueous solubility” (setting [4]) was over 50 µM in each case.

In the case of `CCOC(=O)c1cnc(C2=CCN(C(=O)Nc3ccc(C(F)(F)F)cc3)CC2)c(Cl)c1` [Compound F2], the concentration for half-maximal inhibition (IC50) at human TRPV1 [1] stood at 0.108 ± 0.0243 µM; on human TRPV1 [2] it was 0.0629 ± 0.0088 µM. Besides, the figures for the solubility in “Aqueous solubility” (setting [3]) and in “Aqueous solubility” (setting [4]) were 1 µM (≈ 0.454 µg/mL) and 3 µM (≈ 1.36 µg/mL), respectively.

For `CC(O)c1cnc(C2=CCN(C(=O)Nc3ccc(C(F)(F)F)cc3)CC2)c(Cl)c1` (centres unmarked) [Compound G2], the IC50 at human TRPV1 [1] came out at 0.112 ± 0.0223 µM; on human TRPV1 [2] it was 0.0848 ± 0.0088 µM. Further, the solubility was over 50 µM in “Aqueous solubility” (setting [3]) and 38.2 µM (≈ 16.3 µg/mL) in “Aqueous solubility” (setting [4]).

Take `O=C(Nc1ccc(C(F)(F)F)cc1)N1CC=C(c2ncc([C@H](O)CO)cc2F)CC1` [Compound U1]: the figures for the IC50 at human TRPV1 [1] and at human TRPV1 [2] were 0.0613 ± 0.0225 µM and 0.0147 ± 0.0033 µM, respectively. For the same compound, the solubility in the series “Aqueous solubility” (setting [3]) and in the series “Aqueous solubility” (setting [4]) was over 50 µM throughout.

As for `O=C(Nc1ccc(C(F)(F)F)c(F)c1)N1CC=C(c2ncc([C@H](O)CO)cc2Cl)CC1` [Compound S1, (S)-3-Chloro-5-(1,2-dihydroxy-ethyl)-3′,6′-dihydro-2′H-[2,4′]bipyridinyl-1′-carboxylic acid (3-fluoro-4-trifluoromethyl-phenyl)amide], the results for the IC50 on human TRPV1 [1] and at human TRPV1 [2] were 0.0535 ± 0.0163 µM and 0.0163 ± 0.002 µM, respectively. Further, the solubility in “Aqueous solubility” (setting [3]) and in the series “Aqueous solubility” (setting [4]) was over 50 µM in each case.

The term IC50 denotes the midpoint of a concentration-inhibition curve. As usually defined, the solubility is the dissolved amount per volume that the medium holds.

The record behind these values is patent publication US20090170867A1, “TRPV1 ANTAGONISTS INCLUDING SULFONAMIDE SUBSTITUENT AND USES THEREOF” (Shionogi & Co., Ltd., priority 2007, published 2009).
